Measurements: ChEMBL document CHEMBL4308839, “Recent Progress in the Discovery of Allosteric Inhibitors of Kidney-Type Glutaminase” (J Med Chem, 2018)

Target: T1, Glutaminase kidney isoform, mitochondrial (Homo sapiens, UniProt O94925)
T1 sequence (O94925 whole entry): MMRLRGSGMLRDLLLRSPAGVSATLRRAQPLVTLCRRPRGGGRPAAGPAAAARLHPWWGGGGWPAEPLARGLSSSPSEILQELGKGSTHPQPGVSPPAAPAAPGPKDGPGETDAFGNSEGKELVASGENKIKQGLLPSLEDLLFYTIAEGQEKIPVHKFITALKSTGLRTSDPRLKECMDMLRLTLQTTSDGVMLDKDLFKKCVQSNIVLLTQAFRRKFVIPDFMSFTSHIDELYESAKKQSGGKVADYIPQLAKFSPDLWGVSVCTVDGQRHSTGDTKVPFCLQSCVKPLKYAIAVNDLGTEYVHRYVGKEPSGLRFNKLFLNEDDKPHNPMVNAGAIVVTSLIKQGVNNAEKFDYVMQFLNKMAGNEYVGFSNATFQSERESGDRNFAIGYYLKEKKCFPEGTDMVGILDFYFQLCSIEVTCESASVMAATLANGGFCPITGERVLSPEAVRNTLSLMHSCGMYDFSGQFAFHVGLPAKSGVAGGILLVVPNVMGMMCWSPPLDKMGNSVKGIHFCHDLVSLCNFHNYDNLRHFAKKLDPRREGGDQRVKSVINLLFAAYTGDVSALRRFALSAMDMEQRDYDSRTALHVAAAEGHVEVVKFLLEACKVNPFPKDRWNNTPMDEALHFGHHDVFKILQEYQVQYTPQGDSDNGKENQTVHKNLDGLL
Experiment: Inhibition of human KGA (1 to 669 residues) preincubated for 20 mins using 7 mM glutamine as substrate

Structure (SMILES)	IC50
O=C(Nc1nnc(CCOCCc2nnc(NC(=O)c3ccccc3)s2)s1)c1ccccc1	10200 nM

Target: T1, Glutaminase kidney isoform, mitochondrial
Experiment: Inhibition of GAC (unknown origin) assessed as NADH formation using 1.8 to 13 mM glutamine as substrate preincubated for 60 mins by resorufin dye based assay

Structure (SMILES)	IC50
O=C(Cc1ccccn1)Nc1nnc(C[C@H]2CC[C@H](Cc3nnc(NC(=O)Cc4ccccn4)s3)CC2)s1	500 to 1000 nM
O=C(Cc1ccccn1)Nc1nnc([C@@H]2CC[C@@H](c3nnc(NC(=O)Cc4ccccn4)s3)C2)s1	< 100 nM
O=C(Cc1ccccn1)Nc1nnc(C[C@@H]2C[C@H]2Cc2nnc(NC(=O)Cc3ccccn3)s2)s1 (racemic)	500 to 1000 nM
O=C(Cc1ccccn1)Nc1nnc(C2CCCCC(c3nnc(NC(=O)Cc4ccccn4)s3)C2)s1 (centres undefined)	1000 to 2000 nM
O=C(CCCC(=O)c1ccccc1)Nc1nnc(CCCCc2nnc(NC(=O)CCCC(=O)c3ccccc3)s2)s1	< 100 nM
O=C(Cc1ccccn1)Nc1nnc([C@@H]2CCC[C@H](c3nnc(NC(=O)Cc4ccccn4)s3)C2)s1	1000 to 2000 nM
O=C(Cc1ccccn1)Nc1ccc([C@@H]2CCC[C@H](c3ccc(NC(=O)Cc4ccccn4)nn3)C2)nn1	< 100 nM
CC(=O)Nc1ccc([C@H]2CCC[C@H](c3ccc(NC(C)=O)nn3)C2)nn1	2000 to 10000 nM
O=C(Cc1ccccn1)Nc1nnc([C@H]2CC[C@H](c3nnc(NC(=O)Cc4ccccn4)s3)C2)s1	< 100 nM
O=C(Cc1ccccn1)Nc1nnc(CC2CCC(Cc3nnc(NC(=O)Cc4ccccn4)s3)C2)s1 (centres undefined)	2000 to 10000 nM
O=C(Cc1ccccn1)Nc1nnc([C@@H]2CCC[C@@H](c3nnc(NC(=O)Cc4ccccn4)s3)C2)s1	1000 to 2000 nM
O=C(Cc1ccccn1)Nc1nnc(CC2CC(Cc3nnc(NC(=O)Cc4ccccn4)s3)C2)s1 (centres undefined)	2000 to 10000 nM
O=C(Cc1c[nH]c2ccccc12)Nc1nnc(CCCCc2nnc(NC(=O)Cc3c[nH]c4ccccc34)s2)s1	< 100 nM
O=C(Cc1ccccc1)Nc1nnc([C@H]2CCC[C@H](c3nnc(NC(=O)Cc4ccccc4)s3)C2)s1	< 100 nM
O=C(Cc1ccccn1)Nc1nnc([C@H]2CCC[C@H](c3nnc(NC(=O)Cc4ccccn4)s3)C2)s1	< 100 nM
CC(=O)Nc1ccc([C@@H]2CCC[C@H](c3ccc(NC(C)=O)nn3)C2)nn1	< 100 nM
O=C(Cc1ccccn1)Nc1nnc([C@@H]2CC[C@H](c3nnc(NC(=O)Cc4ccccn4)s3)C2)s1	500 to 1000 nM
O=C(Cc1ccccn1)Nc1ccc([C@H]2CCC[C@H](c3ccc(NC(=O)Cc4ccccn4)nn3)C2)nn1	< 100 nM

Target: T1, Glutaminase kidney isoform, mitochondrial
Experiment: Inhibition of GAC (unknown origin) assessed as NADH formation using 10 mM glutamine as substrate preincubated for 60 mins

Structure (SMILES)	IC50
O=C(Cc1ccccc1)Nc1ccc(CCCCc2nnc(NC(=O)Cc3ccccc3)s2)nn1	80 nM
CN(C)c1ccc(CC(=O)Nc2nnc(CCCCc3nnc(NC(=O)Cc4ccc(N(C)C)cc4)s3)s2)cc1	240 nM
O=C(Cc1ccccc1)Nc1ccc(CCCCc2ccc(NC(=O)Cc3ccccc3)nn2)nn1	10 nM

Target: T1, Glutaminase kidney isoform, mitochondrial
Experiment: Inhibition of GAC (unknown origin) using 1 mM glutamine as substrate preincubated for 10 mins by resorufin dye based assay

Structure (SMILES)	IC50
O=C(NCc1ccccn1)c1cn(CCCCc2nnc(C(=O)NCc3cccc(OC(F)(F)F)c3)s2)nn1	< 100 nM
O=C(Cc1ccccn1)Nc1ccc([C@@H]2CCN(c3nnc(C(=O)NCc4cc(C(F)(F)F)ccn4)s3)C2)nn1	≤ 100 nM
O=C(Cc1ccccc1)Nc1ccc(CCCCn2ccc(NC(=O)Cc3ccccc3)nc2=O)nn1	≤ 100 nM
O=C(Cc1ccccc1)Nc1ccn(CCC(F)Cn2cc(C(=O)NCc3cccc(OC(F)(F)F)c3)nn2)c(=O)c1 (centres undefined)	≤ 100 nM
O=C(Cc1ccccc1)Nc1ccn(CCCCc2nnc(NC(=O)Cc3ccccc3)s2)c(=O)c1	≤ 100 nM
O=C(Cc1cccc(OC(F)(F)F)c1)Nc1ccc(CCCCc2nnc(C(=O)NCc3ccccn3)s2)nn1	< 100 nM
O=C(Cc1ccccc1)Nc1ccn(CC(F)CCn2cc(C(=O)NCc3cccc(OC(F)(F)F)c3)nn2)c(=O)c1 (centres undefined)	≤ 100 nM
O=C(Cc1ccccc1)Nc1ccn(CCCCc2nnc(NC(=O)Cc3ccccc3)s2)c(=O)n1	≤ 100 nM
Cc1ccc(CNC(=O)c2cn(CCCCc3cc4cc(-c5ccccc5F)[nH]c4nn3)nn2)cn1	≤ 100 nM
O=C(Cc1ccccc1)Nc1ccn(CCCCn2cc(C(=O)NCc3cccc(OC(F)(F)F)c3)nn2)c(=O)c1	≤ 100 nM
O=C(Cc1ccccc1)Nc1ccn(CCCCc2cc3cc(Cc4ccccc4)[nH]c3nn2)c(=O)c1	≤ 100 nM
O=C(Cc1ccccc1)Nc1nnc(CCCCc2cc3cc(Cc4ccccc4)[nH]c3nn2)s1	≤ 100 nM
O=C(Cc1ccccn1)Nc1ccc([C@H]2CCN(c3nnc(C(=O)NCc4cc(C(F)(F)F)ccn4)s3)C2)nn1	100 to 500 nM
O=C(NCc1ccccc1)c1cn(CCCCc2cc3cc(Cc4ccccc4)[nH]c3nn2)nn1	≤ 100 nM
O=C(Cc1cccc(OC(F)(F)F)c1)Nc1ccc(C2CCN(c3nnc(NC(=O)Cc4ccccn4)s3)C2)nn1 (centres undefined)	≤ 100 nM
O=C(Cc1cccc(OC(F)(F)F)c1)Nc1ccc(N2CCC(c3nnc(NC(=O)Cc4ccccn4)s3)C2)nn1 (centres undefined)	≤ 100 nM

Target: not listed separately
Experiment: Inhibition of mouse brain glutaminase assessed as ammonia formation using glutamine as substrate by Nessler's reagent based assay

Structure (SMILES)	IC50
O=C(Cc1cccc(OC(F)(F)F)c1)Nc1ccc(CCCCc2nnc(NC(=O)Cc3ccccn3)s2)cn1	50 to 100 nM

Target: T2, Glutaminase kidney isoform, mitochondrial (Mus musculus, UniProt D3Z7P3)
T2 sequence (D3Z7P3 whole entry): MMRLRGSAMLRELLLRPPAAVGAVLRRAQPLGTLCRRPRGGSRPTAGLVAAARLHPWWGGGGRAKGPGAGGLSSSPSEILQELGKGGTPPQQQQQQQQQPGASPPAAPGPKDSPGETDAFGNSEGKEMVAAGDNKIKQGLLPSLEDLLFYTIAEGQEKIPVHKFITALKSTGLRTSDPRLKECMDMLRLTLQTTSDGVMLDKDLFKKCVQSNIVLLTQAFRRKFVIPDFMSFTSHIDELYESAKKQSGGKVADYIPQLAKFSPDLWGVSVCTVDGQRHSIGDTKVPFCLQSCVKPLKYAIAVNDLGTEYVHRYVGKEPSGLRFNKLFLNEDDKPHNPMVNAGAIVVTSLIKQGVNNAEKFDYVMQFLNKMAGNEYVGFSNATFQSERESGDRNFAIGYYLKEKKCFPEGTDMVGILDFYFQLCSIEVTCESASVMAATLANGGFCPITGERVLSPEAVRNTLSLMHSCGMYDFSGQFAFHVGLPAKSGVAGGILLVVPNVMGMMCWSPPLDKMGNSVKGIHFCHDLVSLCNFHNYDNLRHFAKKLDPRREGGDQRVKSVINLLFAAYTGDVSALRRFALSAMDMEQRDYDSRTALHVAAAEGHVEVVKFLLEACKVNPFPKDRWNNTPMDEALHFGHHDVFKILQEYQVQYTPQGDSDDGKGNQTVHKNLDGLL
Experiment: Inhibition of mouse kidney glutaminase assessed as ammonia formation using glutamine as substrate by Nessler's reagent based assay

Structure (SMILES)	IC50
O=C(Cc1cccc(OC(F)(F)F)c1)Nc1ccc(CCCCc2nnc(NC(=O)Cc3ccccn3)s2)cn1	50 to 100 nM

Target: not listed separately
Experiment: (§1) Inhibition of mouse brain glutaminase assessed as ammonia formation at 0.1 uM using glutamine as substrate by Nessler's reagent based assay relative to control

Structure (SMILES)	IC50
O=C(Cc1ccccn1)Nc1ccc(N2CCC(c3nnc(NC(=O)Cc4cccc(OC(F)(F)F)c4)s3)CC2)nn1	< 50 nM
O=C(Cc1cccc(OC(F)(F)F)c1)Nc1ccc(CC2CC(c3nnc(NC(=O)Cc4ccccn4)s3)C2)nn1 (centres undefined)	< 25 nM
O=C(Cc1cccc(OC(F)(F)F)c1)Nc1ccc(N2CCC(c3nnc(NC(=O)Cc4ccccn4)s3)CC2)cn1	1000 to 2000 nM
O=C(Cc1cccc(OC(F)(F)F)c1)Nc1ccc(N2CCC(c3nnc(NC(=O)Cc4ccccn4)s3)CC2)nn1	< 50 nM
O=C(Cc1cccc(OC(F)(F)F)c1)Nc1ccc(N2CCCC(c3nnc(NC(=O)Cc4ccccn4)s3)C2)nn1 (centres undefined)	50 to 200 nM

Species: Mus musculus
Experiment: as §1

Structure (SMILES)	inhibition
O=C(Cc1cccc(OC(F)(F)F)c1)Nc1cnc(CCCCc2nnc(NC(=O)Cc3ccccn3)s2)cn1	< 25%

Target: T3, Glutaminase kidney isoform, mitochondrial (Mus musculus) (UniProt D3Z7P3)
T3 sequence (whole entry): T2 sequence (D3Z7P3 whole entry)
Experiment: (§2) Inhibition of mouse kidney glutaminase assessed as ammonia formation at 0.1 uM using glutamine as substrate by Nessler's reagent based assay relative to control

Structure (SMILES)	inhibition
O=C(Cc1cccc(OC(F)(F)F)c1)Nc1cnc(CCCCc2nnc(NC(=O)Cc3ccccn3)s2)cn1	< 25%

Target: T2, Glutaminase kidney isoform, mitochondrial
Experiment: as §2

Structure (SMILES)	IC50
O=C(Cc1ccccn1)Nc1ccc(N2CCC(c3nnc(NC(=O)Cc4cccc(OC(F)(F)F)c4)s3)CC2)nn1	< 50 nM
O=C(Cc1cccc(OC(F)(F)F)c1)Nc1ccc(CC2CC(c3nnc(NC(=O)Cc4ccccn4)s3)C2)nn1 (centres undefined)	< 25 nM
O=C(Cc1cccc(OC(F)(F)F)c1)Nc1ccc(N2CCC(c3nnc(NC(=O)Cc4ccccn4)s3)CC2)cn1	1000 to 2000 nM
O=C(Cc1cccc(OC(F)(F)F)c1)Nc1ccc(N2CCC(c3nnc(NC(=O)Cc4ccccn4)s3)CC2)nn1	< 50 nM
O=C(Cc1cccc(OC(F)(F)F)c1)Nc1ccc(N2CCCC(c3nnc(NC(=O)Cc4ccccn4)s3)C2)nn1 (centres undefined)	50 to 200 nM

Target: T1, Glutaminase kidney isoform, mitochondrial
Experiment: Inhibition of kidney-type glutaminase in human BT20 cells assessed as reduction in glutamate level
Format: cell-based

Structure (SMILES)	IC50
Cn1ccc(CC(=O)Nc2nnc([C@H]3C[C@@]4(C[C@H](c5nnc(NC(=O)Cc6ccn(C)n6)s5)C4)C3)s2)n1 (some centres undefined)	2.7 nM
O=C(Cc1cccc(OC(F)(F)F)c1)Nc1ccc(C[C@H]2C[C@@H](c3nnc(NC(=O)Cc4ccccn4)s3)C2)nn1	0.2 nM
O=C(Cc1cccc(OC(F)(F)F)c1)Nc1ccc(C[C@@H]2CC[C@H](c3nnc(NC(=O)Cc4ccccn4)s3)C2)nn1	0.1 nM
Cn1ccc(CC(=O)Nc2nnc([C@H]3C[C@]4(C[C@H](c5nnc(NC(=O)Cc6ccn(C)n6)s5)C4)C3)s2)n1 (some centres undefined)	0.5 nM

Target: T1, Glutaminase kidney isoform, mitochondrial
Experiment: Inhibition of human KGA (63 to 669 residues) preincubated for 15 mins using 50 mM glutamine as substrate by resorufin dye based assay

Structure (SMILES)	IC50
CO[C@H](C(=O)Nc1nnc(N[C@@H]2CCN(c3cc(Cl)cnn3)C2)s1)c1ccccc1	40 nM
O=C(Nc1nnc(N[C@@H]2CCN(c3cccnn3)C2)s1)[C@@H](c1cccc(OC(F)(F)F)c1)N1CCC1	100 nM
CO[C@H](C(=O)Nc1ccc(N2CC[C@@H](Nc3cccnn3)C2)nn1)c1cccc(OC(F)F)c1	25 nM
